In ChEMBL document CHEMBL3585267, “Bioactivity of surface tethered Osteogenic Growth Peptide motifs” (2014):
Calls of active or inactive are those of the source. No cut-off for these calls is given here. Peptide text beside a SMILES is read from it.

Key:
Mesenchymal stem cell [1] = test: Effect on cell proliferation of rabbit mesenchymal stem cells incubated for 7 days by MTT assay; format: functional; conditions: Oryctolagus cuniculus
Mesenchymal stem cell [2] = test: Induction of osteogenesis of rabbit mesenchymal stem cells by alkaline phosphatase assay; format: functional; conditions: Oryctolagus cuniculus
Mesenchymal stem cell [3] = test: Effect on cell proliferation of rabbit mesenchymal stem cells incubated for 3 days by MTT assay; format: functional; conditions: Oryctolagus cuniculus
Mesenchymal stem cell [4] = test: Increase in cell proliferation of rabbit mesenchymal stem cells incubated for 14 days by MTT assay; format: functional; conditions: Oryctolagus cuniculus
Mesenchymal stem cell [5] = test: Effect on cell morphology of rabbit mesenchymal stem cells incubated for 3 days by phalloidin immunofluorescence staining method; format: functional; conditions: Oryctolagus cuniculus
Mesenchymal stem cell [6] = test: Effect on cell morphology of rabbit mesenchymal stem cells incubated for 7 days by H and E staining method; format: functional; conditions: Oryctolagus cuniculus
Mesenchymal stem cell [7] = test: (§1) Increase in RUNX2 mRNA expression in rabbit mesenchymal stem cells incubated for 7 days by qRT-PCR method relative to untreated control; format: functional; conditions: Oryctolagus cuniculus
Mesenchymal stem cell [8] = test: (§2) Increase in RUNX2 mRNA expression in rabbit mesenchymal stem cells incubated for 14 days by qRT-PCR method relative to untreated control; format: functional; conditions: Oryctolagus cuniculus
Mesenchymal stem cell [9] = test: (§3) Increase in BMP2 mRNA expression in rabbit mesenchymal stem cells incubated for 7 days by qRT-PCR method relative to untreated control; format: functional; conditions: Oryctolagus cuniculus
Mesenchymal stem cell [10] = test: (§4) Increase in BMP2 mRNA expression in rabbit mesenchymal stem cells incubated for 14 days by qRT-PCR method relative to untreated control; format: functional; conditions: Oryctolagus cuniculus
Mesenchymal stem cell [11] = test: Increase in SPARC mRNA expression in rabbit mesenchymal stem cells incubated for 7 days by qRT-PCR method relative to untreated control; format: functional; conditions: Oryctolagus cuniculus
[12] = Reduction in cell proliferation of rabbit mesenchymal stem cells incubated for 7 days by MTT assay; format: functional; conditions: Oryctolagus cuniculus
[13] = Reduction in cell proliferation of rabbit mesenchymal stem cells incubated for 5 days by MTT assay; format: functional; conditions: Oryctolagus cuniculus
[14] = Reduction in cell proliferation of rabbit mesenchymal stem cells incubated for 14 days by MTT assay; format: functional; conditions: Oryctolagus cuniculus
[15] = as §1; format: functional, Oryctolagus cuniculus, Mesenchymal stem cell
[16] = as §2; format: functional, Oryctolagus cuniculus, Mesenchymal stem cell
[17] = as §3; format: functional, Oryctolagus cuniculus, Mesenchymal stem cell
[18] = as §4; format: functional, Oryctolagus cuniculus, Mesenchymal stem cell
[19] = Increase in SPARC mRNA expression in rabbit mesenchymal stem cells incubated for 14 days by qRT-PCR method relative to untreated control; format: functional, Oryctolagus cuniculus, Mesenchymal stem cell

Structure (SMILES)	Activity (Mesenchymal stem cell [1])	Activity (Mesenchymal stem cell [2])	Activity (Mesenchymal stem cell [3])	Activity (Mesenchymal stem cell [5])	Activity (Mesenchymal stem cell [6])	Activity (Mesenchymal stem cell [11])	further results
CC(C)C[C@H](NC(=O)[C@@H](NC(=O)[C@H](CCCNC(=N)N)NC(=O)CNC(=O)[C@H](CCC(N)=O)NC(=O)[C@H](CCCNC(=N)N)NC(=O)[C@H](CCCCN)NC(=O)[C@H](CC(C)C)NC(=O)[C@H](C)N)[C@@H](C)O)C(=O)O (H-ALKRQGRTL-OH)	inactive	inactive	–	–	–	–	–
N[C@@H](Cc1ccc(O)cc1)C(=O)NCC(=O)N[C@@H](Cc1ccccc1)C(=O)NCC(=O)NCC(=O)N[C@@H](CS)C(=O)O (H-YGFGGC-OH)	inactive	inactive	–	–	–	–	–
N[C@@H](Cc1ccc(O)cc1)C(=O)NCC(=O)N[C@@H](Cc1ccccc1)C(=O)NCC(=O)NCC(=O)O (H-YGFGG-OH)	inactive	inactive	inactive	inactive	inactive	inactive	Activity (Mesenchymal stem cell [4]): Active; Activity (Mesenchymal stem cell [7]): inactive; Activity (Mesenchymal stem cell [8]): inactive; Activity (Mesenchymal stem cell [9]): inactive; Activity (Mesenchymal stem cell [10]): inactive
CC(C)C[C@H](NC(=O)[C@@H](NC(=O)[C@H](CCCNC(=N)N)NC(=O)CNC(=O)[C@H](CCC(N)=O)NC(=O)[C@H](CCCNC(=N)N)NC(=O)[C@H](CCCCN)NC(=O)[C@H](CC(C)C)NC(=O)[C@H](C)NC(=O)[C@@H](N)CS)[C@@H](C)O)C(=O)O (H-CALKRQGRTL-OH)	inactive	inactive	–	–	–	–	–
N[C@@H](CS)C(=O)N[C@@H](Cc1ccc(O)cc1)C(=O)NCC(=O)N[C@@H](Cc1ccccc1)C(=O)NCC(=O)NCC(=O)O (H-CYGFGG-OH)	–	Active	inactive	inactive	inactive	inactive	Activity [12]: Active; Activity [13]: Active; Activity [14]: Active; fold change (FC) [15]: 2.6; fold change (FC) [16]: 1.7; fold change (FC) [17]: 49; fold change (FC) [18]: 60; fold change (FC) [19]: 1.6
CC(C)C[C@H](NC(=O)[C@H](C)N)C(=O)N[C@@H](CCCCN)C(=O)N[C@@H](CCCNC(=N)N)C(=O)N[C@@H](CCC(N)=O)C(=O)NCC(=O)N[C@@H](CCCNC(=N)N)C(=O)N[C@H](C(=O)N[C@@H](CC(C)C)C(=O)N[C@@H](CS)C(=O)O)[C@@H](C)O (H-ALKRQGRTLC-OH)	inactive	inactive	–	–	–	–	–
